Laboratory results from the NIST ThermoML archive (doi:10.1016/j.fluid.2006.03.009).
Numbers after ± are expanded uncertainties.

Conditions: Liquid

Row | vapor or sublimation pressure (273.15 K) [kPa] | vapor or sublimation pressure (278.15 K) [kPa] | vapor or sublimation pressure (283.15 K) [kPa] | vapor or sublimation pressure (293.15 K) [kPa] | vapor or sublimation pressure (303.15 K) [kPa] | vapor or sublimation pressure (313.15 K) [kPa] | Compound
1 | 586 ± 2.8 | 678.5 ± 3 | 780.8 ± 3.3 | 1019 ± 3.8 | 1307.6 ± 4.6 | 1652.2 ± 5.6 | C=CC [propene]
2 | 474 ± 2.6 | 550.8 ± 2.8 | 636 ± 2.9 | 836.2 ± 3.4 | 1077.6 ± 4 | 1368 ± 4.7 | CCC [propane]
